Source: patent US20090018106A1, “INTRAVENOUS FORMULATIONS OF PYRIDOXAL 5'- PHOSPHATE AND METHOD OF PREPARATION” (Medicure International Inc., priority 2005, published 2009)
Like-named read-outs stand apart in the source and are kept apart here.

Assays:
[1] = Single intravenous dose escalation of P5P, plasma pharmacokinetics (Examples Two and Three); type: in vivo, human; details: for Cmax / MRT / Tmax / half-life / AUC(0-inf) / AUC(0-t): both sexes, human; for Cmax / MRT / Tmax / half-life: plasma, iv; for Significance of b1, lnAUCi / Significance of b1, lnCmax / Significance of b1, lnMRT / Significance of b1, lnThalf / Coef. for Dose (b1), lnAUCi / Coef. for Dose (b1), lnCmax / Coef. for Dose (b1), lnMRT / Coef. for Dose (b1), lnThalf / Intercept (b0), lnAUCi / Intercept (b0), lnCmax / Intercept (b0), lnMRT / Intercept (b0), lnThalf: ln(pK Parameter) = b0 + b1 * ln (Dose); for Coef. for Dose (b1), lnAUCi / Coef. for Dose (b1), lnCmax / Coef. for Dose (b1), lnMRT / Coef. for Dose (b1), lnThalf / Intercept (b0), lnAUCi / Intercept (b0), lnCmax / Intercept (b0), lnMRT / Intercept (b0), lnThalf: single iv 1-20 mg/kg; for dose relationship of plasma AUCinf and Cmax: single iv P5P 1-20 mg/kg
Method: A phase one clinical trial was conducted to compare the pharmacokinetics of intravenously administered P5P and orally administered P5P. The trial was a single dose escalation study.
For intravenous administration, P5P was administered by bolus injection under fasting conditions. The following doses of P5P were studied: 1, 5, 10, and 20 mg/kg. 6 subjects were assigned to each dosage group.
P5P, pyridoxal, and 4-pyridoxic acid were evaluated in both plasma and urine over a 24 hour interval following either intravenous or oral dosing. The results are set out below in Tables 2 and 3.
Methodology—This was a single-blind, single-dose escalation, non-randomized, 4-phase, non-crossover study designed to evaluate the safety and […] subjects under fasting conditions and to estimate pharmacokinetic parameters of P5P.
Subjects were assigned to one of the four groups (six subjects per group) under fasting conditions.
Concentrations of pyridoxal-5′-phosphate (P5P) were measured from the plasma samples collected over a 24-bour interval after dosing in each phase.
Pharmacokinetic parameters: AUCt, AUCinf, Cmax, Tmax, Kel, Thalf, Vd, CL, MRT and F were estimated based on pyridoxal-5′-phosphate (P5P) plasma levels for each subject that was in the final data set.
The test product used was a P5P Intravenous Injectable Solution, 50 mg/ml, which was prepared in accordance with the methods of Example 1 (CanAm BioResearch Inc. Canada); Lot No.: LP1459: Manufacturing Date: 12/03. A single 1, 5, 10 or 20 mg/kg dose was given by intravenous injection. The duration of treatment was a single dose.
Secondary Endpoint—Pharmacokinetic (PK) Parameters—Plasma concentrations of pyridoxal-5′-phosphate (P5P) were measured by a validated analytical method. Based on these concentration levels, AUCt, AUCinf, Cmax, Tmax, Kel, Thalf, Vd, CL, MRT and F were estimated.
Statistical Methods—Descriptive statistics were calculated by treatments for the estimated pharmacokinetic parameters.

[2] = Cumulative urinary excretion after single intravenous dose of P5P (Example Three); type: in vivo, human; details: Percent (CV %)
Method: P5P, pyridoxal, and 4-pyridoxic acid were evaluated in both plasma and urine over a 24 hour interval following either intravenous or oral dosing. The results are set out below in Tables 2 and 3. The urinary excretion of the unchanged P5P is negligible. Less than 0.5% of the administered dose was found as P5P in the urine (Table 10). Similarly, very little of the dose was excreted in urine as PAL, between approximately 2 to 3% of the total dose (Table 10). PA represented the largest amounts found in urine. Over a 24-hour interval, between 30% and 52% of the given dose was excreted in urine as 4-pyridoxic acid.

[3] = Group 1, P5P 1 mg/kg single iv, plasma PA, mean
[4] = Group 2, P5P 5 mg/kg single iv, plasma PA, mean
[5] = Group 3, P5P 10 mg/kg single iv, plasma PA, mean
[6] = Group 4, P5P 20 mg/kg single iv, plasma PA, mean
[7] = 1 mg/kg, Group 1, P5P 1 mg/kg single iv, plasma PA, mean
[8] = 5 mg/kg, Group 2, P5P 5 mg/kg single iv, plasma PA, mean
[9] = 10 mg/kg, Group 3, P5P 10 mg/kg single iv, plasma PA, mean
[10] = 20 mg/kg, Group 4, P5P 20 mg/kg single iv, plasma PA, mean
[11] = over all single iv doses of P5P (1-20 mg/kg), read-out: apparent elimination half-life (converted)
[12] = Group 1, dose of P5P 1 mg/1 kg, single iv
[13] = Group 3, P5P 10 mg/kg single iv
[14] = Group 4, dose of P5P, single iv
[15] = Group 1, P5P 1 mg/kg single iv, plasma PAL, mean
[16] = Group 2, P5P 5 mg/kg single iv, plasma PAL, mean
[17] = Group 3, P5P 10 mg/kg single iv, plasma PAL, mean
[18] = Group 4, P5P 20 mg/kg single iv, plasma PAL, mean
[19] = 1 mg/kg, Group 1, P5P 1 mg/kg single iv, plasma PAL, mean
[20] = 5 mg/kg, Group 2, P5P 5 mg/kg single iv, plasma PAL, mean
[21] = 10 mg/kg, Group 3, P5P 10 mg/kg single iv, plasma PAL, mean
[22] = 20 mg/kg, Group 4, P5P 20 mg/kg single iv, plasma PAL, mean

Which Kel [1, 3] does the source give for `Cc1ncc(CO)c(C(=O)O)c1O` [PA, 4-pyridoxic acid] here?
Its Kel is 0.311 h⁻¹.

And the Kel [1, 4]?
Its Kel is 0.332 h⁻¹.

And the Kel [1, 5]?
Its Kel is 0.268 h⁻¹.

And the Kel [1, 6]?
The Kel was 0.216 h⁻¹.

What about the Cmax [1, 7] of the same molecule?
The Cmax was 419 ng/mL.

What about the MRT [1, 7] of the same molecule?
Its MRT is 4.5 h.

What about the Tmax [1, 7] of the same molecule?
The Tmax was 1.04 h.

What about the half-life ([1]; 1 mg/kg, Group 1, P5P 1 mg/kg single iv, plasma PA, mean, read-out: T½ (converted)) of the same molecule?
Its half-life is 2.82 h.

What about the Cmax [1, 8] of the same molecule?
Its Cmax is 2450 ng/mL.

And the MRT [1, 8]?
The MRT was 3.48 h.

What about the Tmax [1, 8] of the same molecule?
Its Tmax is 0.71 h.

And the half-life ([1]; 5 mg/kg, Group 2, P5P 5 mg/kg single iv, plasma PA, mean, read-out: T½ (converted))?
The half-life was 2.12 h.

And the Cmax [1, 9]?
The Cmax was 5360 ng/mL.

And the MRT [1, 9]?
Its MRT is 3.85 h.

What about the Tmax [1, 9] of the same molecule?
Its Tmax is 0.74 h.

And the half-life ([1]; 10 mg/kg, Group 3, P5P 10 mg/kg single iv, plasma PA, mean, read-out: T½ (converted))?
The half-life was 2.73 h.

What about the Cmax [1, 10] of the same molecule?
The Cmax was 16100 ng/mL.

And the MRT [1, 10]?
Its MRT is 4.13 h.

And the Tmax [1, 10]?
Its Tmax is 0.73 h.

What about the half-life ([1]; 20 mg/kg, Group 4, P5P 20 mg/kg single iv, plasma PA, mean, read-out: T½ (converted)) of the same molecule?
Its half-life is 3.48 h.

What about the half-life [1, 11] of the same molecule?
Its half-life is 2 to 3.5 h.

And the AUC(0-inf) [1, 3]?
Its AUC(0-inf) is 1990 ng·h/mL.

And the AUC(0-t) ([1]; Group 1, P5P 1 mg/kg single iv, plasma PA, mean, read-out: AUC(0-t))?
Its AUC(0-t) is 1500 ng·h/mL.

What about the AUC(0-inf) [1, 4] of the same molecule?
Its AUC(0-inf) is 10700 ng·h/mL.

And the AUC(0-t) ([1]; Group 2, P5P 5 mg/kg single iv, plasma PA, mean, read-out: AUC(0-t))?
The AUC(0-t) was 10500 ng·h/mL.

And the AUC(0-inf) [1, 5]?
The AUC(0-inf) was 23000 ng·h/mL.

And the AUC(0-t) ([1]; Group 3, P5P 10 mg/kg single iv, plasma PA, mean, read-out: AUC(0-t))?
The AUC(0-t) was 22700 ng·h/mL.

What about the AUC(0-inf) [1, 6] of the same molecule?
The AUC(0-inf) was 53000 ng·h/mL.

What about the AUC(0-t) ([1]; Group 4, P5P 20 mg/kg single iv, plasma PA, mean, read-out: AUC(0-t)) of the same molecule?
The AUC(0-t) was 51900 ng·h/mL.

And the “Significance of b1, lnAUCi” value [1]?
The value was under 0.0001.

And the “Significance of b1, lnCmax” value [1]?
Its value is under 0.0001.

What about the “Significance of b1, lnMRT” value [1] of the same molecule?
Its value is 0.7995.

What about the “Significance of b1, lnThalf” value [1] of the same molecule?
The value was 0.2604.

What about the “Coef. for Dose (b1), lnAUCi” value [1] of the same molecule?
Its value is 1.10.

What about the “Coef. for Dose (b1), lnCmax” value [1] of the same molecule?
Its value is 1.20.

What about the “Coef. for Dose (b1), lnMRT” value [1] of the same molecule?
The value was −0.01.

What about the “Coef. for Dose (b1), lnThalf” value [1] of the same molecule?
Its value is 0.08.

What about the “Intercept (b0), lnAUCi” value [1] of the same molecule?
The value was 0.62.

And the “Intercept (b0), lnCmax” value [1]?
The value was −0.98.

What about the “Intercept (b0), lnMRT” value [1] of the same molecule?
Its value is 1.37.

And the “Intercept (b0), lnThalf” value [1]?
The value was 0.82.

And the “dose relationship of plasma AUCinf and Cmax” value [1]?
The value was “increase more than expected based on dose”.

What about the “Cumulative Urinary Excretion as Percent of the Dose” value [2, 12] of the same molecule?
Its value is 52.25 (28) Percent.

What about the “Cumulative Urinary Excretion as Percent of the Dose” value ([2]; Group 2, P5P 5 mg/kg single iv) of the same molecule?
Its value is 47.18 (32) Percent.

And the “Cumulative Urinary Excretion as Percent of the Dose” value [2, 13]?
Its value is 29.78 (32) Percent.

And the “Cumulative Urinary Excretion as Percent of the Dose” value [2, 14]?
Its value is 40.55 (54) Percent.

Which results are given for `Cc1ncc(CO)c(C=O)c1O` [PAL, pyridoxal]?
Kel [1, 15]: 0.198 h⁻¹; Kel [1, 16]: 0.18 h⁻¹; Kel [1, 17]: 0.167 h⁻¹; Kel [1, 18]: 0.177 h⁻¹; Cmax [1, 19]: 591 ng/mL; MRT [1, 19]: 3.7 h; Tmax [1, 19]: 0.46 h; half-life ([1]; 1 mg/kg, Group 1, P5P 1 mg/kg single iv, plasma PAL, mean, read-out: T½ (converted)): 3.96 h; Cmax [1, 20]: 2480 ng/mL; MRT [1, 20]: 4.4 h; Tmax [1, 20]: 0.71 h; half-life ([1]; 5 mg/kg, Group 2, P5P 5 mg/kg single iv, plasma PAL, mean, read-out: T½ (converted)): 4.25 h; Cmax [1, 21]: 13300 ng/mL; MRT [1, 21]: 3.68 h; Tmax [1, 21]: 0.42 h; half-life ([1]; 10 mg/kg, Group 3, P5P 10 mg/kg single iv, plasma PAL, mean, read-out: T½ (converted)): 4.2 h; Cmax [1, 22]: 25900 ng/mL; MRT [1, 22]: 3.98 h; Tmax [1, 22]: 0.32 h; half-life ([1]; 20 mg/kg, Group 4, P5P 20 mg/kg single iv, plasma PAL, mean, read-out: T½ (converted)): 4.01 h; half-life [1, 11]: ~4 h; AUC(0-inf) [1, 15]: 2070 ng·h/mL; AUC(0-t) ([1]; Group 1, P5P 1 mg/kg single iv, plasma PAL, mean, read-out: AUC (0-t)): 2020 ng·h/mL; AUC(0-inf) [1, 16]: 10400 ng·h/mL; AUC(0-t) ([1]; Group 2, P5P 5 mg/kg single iv, plasma PAL, mean, read-out: AUC (0-t)): 10100 ng·h/mL; AUC(0-inf) [1, 17]: 39500 ng·h/mL; AUC(0-t) ([1]; Group 3, P5P 10 mg/kg single iv, plasma PAL, mean, read-out: AUC (0-t)): 39100 ng·h/mL; AUC(0-inf) [1, 18]: 95200 ng·h/mL; AUC(0-t) ([1]; Group 4, P5P 20 mg/kg single iv, plasma PAL, mean, read-out: AUC (0-t)): 94400 ng·h/mL; Significance of b1, lnAUCi [1]: <0.0001; Significance of b1, lnCmax [1]: <0.0001; Significance of b1, lnMRT [1]: 0.5671; Significance of b1, lnThalf [1]: 0.5604; Coef. for Dose (b1), lnAUCi [1]: 1.30; Coef. for Dose (b1), lnCmax [1]: 1.30; Coef. for Dose (b1), lnMRT [1]: 0.02; Coef. for Dose (b1), lnThalf [1]: 0.03; Intercept (b0), lnAUCi [1]: 0.56; Intercept (b0), lnCmax [1]: −0.72; Intercept (b0), lnMRT [1]: 1.33; Intercept (b0), lnThalf [1]: 1.33; dose relationship of plasma AUCinf and Cmax [1]: increase more than expected based on dose; Cumulative Urinary Excretion as Percent of the Dose [2, 12]: 1.93 (101) Percent; Cumulative Urinary Excretion as Percent of the Dose ([2]; Group 2, P5P 5 mg/kg single iv): 3.00 (37) Percent; Cumulative Urinary Excretion as Percent of the Dose [2, 13]: 2.73 (20) Percent; Cumulative Urinary Excretion as Percent of the Dose [2, 14]: 2.46 (33) Percent
